Results published in ChEMBL document CHEMBL5257043, “Bulbiferamide, an Antitrypanosomal Hexapeptide Cyclized via an N-Acylindole Linkage from a Marine Obligate Microbulbifer” (J Nat Prod, 2023).
pIC50: −log10 of the molar value. The source made the active and inactive calls. The rule behind the calls is not given here. *1 amine or outer side, *2 acyl side, *3 side chain or, on linkers, in order; H or OH if unused. Where a SMILES comes first, the peptide text is derived from it. Bridges are numbered along the chain shown (N, C = ends). CO = O=C([*:1])[*:2]

How the values were obtained:
Trypanosoma cruzi = assay: Antitrypanosomal activity against Trypanosoma cruzi Tulahuen epimastigotes incubated for 24 hrs by cell titer glo luminescent assay; type: functional, organism-based
P338 = assay: Cytotoxicity against mouse P388 cells at 100 uM incubated for 84 hrs by MTT assay; type: functional, cell-based
Kocuria rhizophila = assay: Antimicrobial activity against Kocuria rhizophila ATCC9341 at 100 ug/ml incubated for 24 hrs by microplate reader assay; type: functional, organism-based; conditions: dose 100.0 µg/ml
Staphylococcus aureus = assay: Antimicrobial activity against Staphylococcus aureus FDA209 JC-1 at 100 ug/ml incubated for 24 hrs by microplate reader assay; type: functional, organism-based; conditions: dose 100.0 µg/ml
Escherichia coli = assay: Antimicrobial activity against Escherichia coli NIHJ JC-2 at 100 ug/ml incubated for 24 hrs by microplate reader assay; type: functional, organism-based; conditions: dose 100.0 µg/ml
Ralstonia solanacearum = assay: Antimicrobial activity against Ralstonia solanacearum SUPP1541 at 100 ug/ml incubated for 24 hrs by microplate reader assay; type: functional, organism-based; conditions: dose 100.0 µg/ml
[1] = system: Agrobacterium tumefaciens; assay: Antimicrobial activity against Rhizobium radiobacter NBRC14554 at 100 ug/ml incubated for 24 hrs by microplate reader assay; type: functional, organism-based; conditions: dose 100.0 µg/ml
Candida albicans = assay: Antimicrobial activity against Candida albicans NBRC0197 at 100 ug/ml by microplate reader assay; type: functional, organism-based; conditions: dose 100.0 µg/ml

Compound	pIC50 (Trypanosoma cruzi)	Activity (P338)	Activity (Kocuria rhizophila)	Activity (Staphylococcus aureus)	Activity (Escherichia coli)	Activity (Ralstonia solanacearum)	Activity [1]	Activity (Candida albicans)
CC[C@H](C)[C@@H]1NC(=O)[C@@H](NC(=O)[C@H](CC(C)C)NC(=O)N[C@@H](Cc2ccccc2)C(=O)O)Cc2cn(c3ccccc23)C(=O)[C@H](CC(C)C)NC(=O)[C@H](CCCNC(=N)N)NC1=O ({Phe-CO}-LWIRL; lactam 2-C)	5.39	inactive	inactive	inactive	inactive	inactive	inactive	inactive
O=C(Cn1ccnc1[N+](=O)[O-])NCc1ccccc1 [BENZNIDAZOLE]	4.70							
